The text below walks through data of US9884863B2, “STAT3 inhibitor” (Board of Regents, The University of Texas System, priority 2013, dated 2018).

One experiment concerns MCF-7. Briefly: MTS cell proliferation assay, MCF-7. Format: cell-based, human. Summed up: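 MCF-7 human breast cancer cells were exposed to test compounds at a range of concentrations, then proliferation was measured with the MTS reagent from Promega's CellTiter 96 AQueous Non-Radioactive Cell Proliferation Assay kit. After 1 hr at 37° C., OD at 550 nm was read on a 96-well iMark Microplate Absorbance Reader, with quadruplicate wells per concentration.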
In general terms: Tetrazolium assays rely on reduction of a dye to a coloured formazan, in cell work by metabolically active cells.

For another experiment, the system named is MDA-MB-361. Briefly: MTS cell proliferation assay, MDA-MB-361. It is filed as cell-based. As to conditions: Homo sapiens, ER-positive breast cancer, 72 hrs, >10 = no effect, read-out: IC50 MDA-MB-361 (Table 1). How it is done: (§1) Cancer cells (breast cancer cell lines MCF-7, MDA-MB-361, SKBR3 and MDA-MB-231, pancreatic cancer cell lines AsPC-1. BxPC3 and Panc-1) were seeded in 96-well plates at a density of 1000-2000 cells/well and treated with DMSO, 0.01, 0.1, 1, 5, 10, and […] of STAT3 individual inhibitors for 72 hrs. Proliferation was measured by treating cells with the 3-(4,5-dimethylthiazol-2-yl)-5-(3-carboxymethoxyphenyl)-2-(4-sulfophenyl)-2H-tetrazolium) (MTS) in a CellTiter 96t AQueous Non-Radioactive Cell Proliferation Assay kit from Promega, Madison, Wis., USA). Absorbance of all wells was determined by measuring OD at 550 nm after 1 hr incubation at 37° C. on a 96-well iMark™ Microplate Absorbance Reader (BioRad, Hercules, Calif.). Each individual compound was tested in quadruplicate wells for each concentration, and the results were reported as mean absorption±s.e.

In a further experiment the test system is MDA-MB-231. Briefly: MTS cell proliferation assay, MDA-MB-231. Format: cell-based, human. To be noted: Homo sapiens, read-out: IC50 MDA-MB-231 (Table 1). Summed up: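 Cells are exposed to DMSO or STAT3 inhibitors at 0.01-100 μM for 72 h, or at 1, 5 and 10 μM. Proliferation is read by MTS absorbance at 550 or 560 nm after 1 h at 37 °C. Each concentration is run in quadruplicate wells.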

The subject of a further experiment is SKBR3. Briefly: MTS cell proliferation assay, SKBR3. It is filed as cell-based. As to conditions: Homo sapiens, SK-BR-3; ER-negative breast cancer, 72 hrs; >10 = no effect; read-out: IC50 SKBR3 (Table 1). How it is done:
as §1

The subject of the next experiment is AsPC1. The experiment can be described thus: MTS cell proliferation assay, AsPC1. It is filed as cell-based, human. To be noted: Homo sapiens, read-out: IC50 AsPC1 (Table 1). The procedure: as §1
(§2) In Vitro Determination of Effects of Synthesized Compounds on Cancer Cell Proliferation. Cancer cells (breast cancer cell lines MCF-7 and MDA-MB-231, pancreatic cancer cell lines AsPC-1 and Panc-1) were seeded in 96-well plates at a density of 2×10^3 cells/well and treated with DMSO, 0.01, 0.1, 1, 5, 10, and 100 μM of individual STAT3 inhibitors for 72 h. Proliferation was measured by treating cells with the 3-(4,5-dimethylthiazol-2-yl)-5-(3-carboxymethoxyphenyl)-2-(4-sulfophenyl)-2H-tetrazolium) (MTS) in a CellTiter 96t Aqueous Non-Radioactive Cell Proliferation Assay kit (Promega, Madison, Wis., USA). Absorbance of all wells was determined by measuring OD at 550 nm after 1 h incubation at 37° C. on a 96-well iMark™ Microplate Absorbance Reader (BioRad, Hercules, Calif.). Each individual compound was tested in quadruplicate wells for each concentration.

A further experiment relates to BxPc-3H. The experiment can be described thus: MTS cell proliferation assay, BxPc-3H. It is filed as cell-based. As to conditions: Homo sapiens; pancreatic cancer, 72 hrs; >10 = no effect; read-out: IC50 BxPc-3H (Table 1). How it is done: as §1
In the next experiment the test system is Panc-1. The experiment can be described thus: MTS cell proliferation assay, Panc-1. It is filed as cell-based, human. To be noted: Homo sapiens, read-out: IC50 Panc-1 (Table 1). The procedure:
as §1, §2

[1] abbreviates: Homo sapiens, MCF7, 72 h, read-out: IC50 MCF-7 (Table 1).
[2] abbreviates: Homo sapiens, MCF7, 72 h; read-out: IC50 MCF-7 (Table 1).
Where [3] appears, read: MDA-MB-231, ER-negative breast cancer, 72 hrs, >10 = no effect.
Where [4] appears, read: ASPC1, pancreatic cancer, 72 hrs, >10 = no effect.
Where [5] appears, read: PANC-1, pancreatic cancer, 72 hrs, >10 = no effect.
Setting [6] is: MCF-7, 48 hr, μM concentrations.

Where two headings read alike, the source gives them in different places.

In general, IC50 refers to the concentration that inhibits the measured activity by half. As to `O=C(Nc1ccc([N+](=O)[O-])cc1Cl)c1cc(Cl)ccc1OCCN1CCOCC1` [HJC-1-14, 5-Chloro-N-(2-chloro-4-nitro-phenyl)-2-(2-morpholin-4-yl-ethoxy)benzamide], the IC50 is 9.87 µM with MCF-7 (setting [1]); 12.6 µM in the experiment on MDA-MB-361; 17.9 µM in the experiment with MDA-MB-231 (MDA-MB-231, 72 h); 5.1 µM in the experiment with SKBR3; 73.2 µM in the experiment on AsPC1 (ASPC1, 72 h); > 10 µM with BxPc-3H. The half-inhibitory concentration (IC50) with Panc-1 (PANC-1, 72 h) was > 10 µM.
As for `O=C(Nc1nnc(-c2ccco2)o1)c1cc(Cl)ccc1O` [HJC-1-51, 5-Chloro-N-(5-furan-2-yl-[1,3,4]oxadiazol-2-yl)-2-hydroxybenzamide], the IC50 was > 10 µM in the experiment with MCF-7 (setting [2]); > 10 µM with MDA-MB-361; > 10 µM with MDA-MB-231 (setting [3]); 42.4 µM with SKBR3; > 10 µM in the experiment with AsPC1 (setting [4]); 200 µM in the experiment with BxPc-3H. Further, in the experiment with Panc-1 (setting [5]), the concentration for half-maximal inhibition (IC50) was > 10 µM.
Take `C[C@H](NC(=O)c1cc(Cl)ccc1O)c1ccccc1` [HJC-1-30, 5-Chloro-2-hydroxy-N-(1-phenyl-ethyl)benzamide]: the concentration for half-maximal inhibition (IC50) stood at 0.9 µM in the experiment with MCF-7 (setting [2]); 6.39 µM with MDA-MB-361; 8.88 µM with MDA-MB-231 (setting [3]); 6.51 µM with SKBR3; 7.54 µM in the experiment on AsPC1 (setting [4]); 7.26 µM in the experiment with BxPc-3H. Moreover, the concentration for half-maximal inhibition (IC50) in the experiment on Panc-1 (setting [5]) stood at 8.44 µM. The “inhibition on breast cancer cell proliferation (FIG. 1)” value (“inhibition” below) in the experiment on MCF-7 (setting [6]) is listed as “significant inhibition”.
In the case of `O=C(Nc1ccc2c(c1)S(=O)(=O)C=C2)c1cc(-c2ccccc2)nc(-c2ccccc2)c1` [HJC-1-36, N-(1,1-Dioxo-1H-1λ^6-benzo[b]thiophen-6-yl)-2,6-diphenyl-isonicotinamide], the 50% inhibitory concentration (IC50) is 0.65 µM in the experiment on MCF-7 (setting [2]); 0.23 µM with MDA-MB-361; 0.45 µM in the experiment on MDA-MB-231 (setting [3]); 0.2 µM in the experiment on SKBR3; 0.12 µM with AsPC1 (setting [4]); 0.27 µM in the experiment on BxPc-3H. Also, the IC50 with Panc-1 (setting [5]) was 0.31 µM. Besides, the “inhibition” value in the experiment with MCF-7 (setting [6]) is “significant inhibition”.
Turning to `O=C(Nc1ccc2c(c1)S(=O)(=O)C=C2)c1c2ccccc2nc2ccccc12` [HJC-1-41, Acridine-9-carboxylic acid (1,1-dioxo-1H-1λ^6-benzo[b]thiophen-6-yl)amide], the half-maximal inhibitory concentration (IC50) in the experiment on MCF-7 (setting [1]) was > 10 µM; in the experiment with MDA-MB-361 it was 170 µM; with MDA-MB-231 (MDA-MB-231, 72 h), > 10 µM; with SKBR3, > 10 µM; in the experiment on AsPC1 (ASPC1, 72 h), > 10 µM; in the experiment on BxPc-3H, > 10 µM. In addition, in the experiment with Panc-1 (PANC-1, 72 h), the IC50 is > 10 µM.
Take `O=C(Nc1ccc2c(c1)S(=O)(=O)C=C2)c1cc(Cl)ccc1O` [HJC-1-49, 5-Chloro-N-(1,1-dioxo-1H-1λ^6-benzo[b]thiophen-6-yl)-2-hydroxybenzamide]: the half-inhibitory concentration (IC50) came out at 0.91 µM in the experiment on MCF-7 (setting [2]); 2.37 µM with MDA-MB-361; 1.64 µM in the experiment with MDA-MB-231 (setting [3]); 0.72 µM in the experiment on SKBR3; 1.92 µM in the experiment with AsPC1 (setting [4]); 1.16 µM in the experiment on BxPc-3H. Further, in the experiment with Panc-1 (setting [5]), the IC50 was determined as 2.34 µM. Also, the “inhibition” value with MCF-7 (setting [6]) is “significant inhibition”.
In the case of `O=C(Nc1ccc2c(c1)S(=O)(=O)C=C2)c1cc(-c2ccccc2)nc2ccccc12` [HJC-1-23, 2-Phenyl-quinoline-4-carboxylic acid (1,1-dioxo-1H-1λ^6-benzo[b]thiophen-6-yl)-amide], the half-maximal inhibitory concentration (IC50) was determined as 0.1 µM in the experiment with MCF-7 (setting [1]); 0.24 µM in the experiment with MDA-MB-361; 0.29 µM in the experiment on MDA-MB-231 (MDA-MB-231, 72 h); 0.22 µM with SKBR3; 1.25 µM in the experiment on AsPC1 (ASPC1, 72 h); 0.2 µM in the experiment on BxPc-3H. The IC50 in the experiment with Panc-1 (PANC-1, 72 h) stood at 0.26 µM. Also, the “inhibition” value in the experiment on MCF-7 (setting [6]) is “significant inhibition”.
In the case of `CC(=O)Nc1ccc(NC(=O)c2cc(Cl)ccc2OC(C)=O)c(Cl)c1` [HJC-1-37, Acetic acid 2-(4-acetylamino-2-chloro-phenylcarbamoyl)-4-chlorophenyl ester], the half-inhibitory concentration (IC50) in the experiment with MCF-7 (setting [2]) was 11.7 µM; in the experiment on MDA-MB-361, 9.23 µM; with MDA-MB-231 (setting [3]) it was > 10 µM; in the experiment on SKBR3, 9.14 µM; in the experiment with AsPC1 (setting [4]) it was 11.6 µM; in the experiment with BxPc-3H it was 13.2 µM. In the experiment on Panc-1 (setting [5]), the half-inhibitory concentration (IC50) is 27.9 µM.
With `Nc1ccc(NC(=O)c2cc(Cl)ccc2O)c(Cl)c1` [HJC-1-29, N-(4-Amino-2-chloro-phenyl)-5-chloro-2-hydroxy-benzamide], the IC50 is > 10 µM in the experiment on MCF-7 (setting [2]); 14.9 µM with MDA-MB-361; > 10 µM in the experiment on MDA-MB-231 (setting [3]); 16.1 µM in the experiment with SKBR3; > 10 µM in the experiment on AsPC1 (setting [4]); > 10 µM in the experiment with BxPc-3H. Moreover, the half-maximal inhibitory concentration (IC50) with Panc-1 (setting [5]) was > 10 µM.
Turning to `O=C(Nc1ccc([N+](=O)[O-])cc1Cl)c1cc(-c2ccccc2)nc2ccccc12` [HJC-1-17, 2-Phenyl-quinoline-4-carboxylic acid (2-chloro-4-nitro-phenyl)amide], the IC50 is 15.9 µM in the experiment with MCF-7 (setting [1]); 17.4 µM in the experiment on MDA-MB-361; > 10 µM with MDA-MB-231 (MDA-MB-231, 72 h); > 10 µM in the experiment with SKBR3; > 10 µM in the experiment on AsPC1 (ASPC1, 72 h); > 10 µM with BxPc-3H. Moreover, the 50% inhibitory concentration (IC50) in the experiment with Panc-1 (PANC-1, 72 h) was > 10 µM.
Take `CS(=O)(=O)Nc1ccc(NC(=O)c2cc(Cl)ccc2O)c(Cl)c1` [HJC-1-31, 5-Chloro-N-(2-chloro-4-methanesulfonylamino-phenyl)-2-hydroxybenzamide]: the IC50 was > 10 µM in the experiment with MCF-7 (setting [2]); 43 µM in the experiment with MDA-MB-361; > 10 µM in the experiment on MDA-MB-231 (setting [3]); > 10 µM in the experiment on SKBR3; > 10 µM in the experiment with AsPC1 (setting [4]); > 10 µM in the experiment on BxPc-3H. The half-inhibitory concentration (IC50) in the experiment with Panc-1 (setting [5]) was 0.84 µM.
On to `O=C(Nc1ccc([N+](=O)[O-])cc1Cl)c1cc(Cl)ccc1OC1CCNCC1` [HJC-1-25, 5-Chloro-N-(2-chloro-4-nitro-phenyl)-2-(piperidin-4-yloxy)benzamide], for which the IC50 in the experiment with MCF-7 (setting [2]) came out at 0.25 µM; in the experiment on MDA-MB-361 it was 0.18 µM; in the experiment on MDA-MB-231 (setting [3]) it was 0.29 µM; in the experiment on SKBR3, 0.28 µM; in the experiment with AsPC1 (setting [4]), 2.76 µM; in the experiment on BxPc-3H it was 0.27 µM. The IC50 in the experiment on Panc-1 (setting [5]) was determined as 0.54 µM. The “inhibition” value in the experiment with MCF-7 (setting [6]) is given as “significant inhibition”.
For `CC(=O)Nc1ccc(NC(=O)c2cc(Cl)ccc2O)c(Cl)c1` [HJC-1-40, N-(4-Acetylamino-2-chlorophenyl)-5-chloro-2-hydroxybenzamide], the half-inhibitory concentration (IC50) with MCF-7 (setting [2]) is > 10 µM; in the experiment on MDA-MB-361, 22.8 µM; in the experiment on MDA-MB-231 (setting [3]), 66.3 µM; with SKBR3 it was 11.2 µM; in the experiment with AsPC1 (setting [4]), 37.6 µM; in the experiment with BxPc-3H, > 10 µM. In addition, the concentration for half-maximal inhibition (IC50) with Panc-1 (setting [5]) is > 10 µM.
As for `C[C@H](NC(=O)c1cc(-c2ccccc2)nc2ccccc12)c1ccccc1` [HJC-1-28, 2-Phenyl-quinoline-4-carboxylic acid (1-phenyl-ethyl)amide], the half-inhibitory concentration (IC50) in the experiment with MCF-7 (setting [2]) is 2.24 µM; with MDA-MB-361 it was 132 µM; in the experiment with MDA-MB-231 (setting [3]) it was 86 µM; with SKBR3, 45.9 µM; in the experiment on AsPC1 (setting [4]), > 10 µM; with BxPc-3H, 16.4 µM. The concentration for half-maximal inhibition (IC50) with Panc-1 (setting [5]) came out at 15.4 µM.
